Where a name gives a salt, the structure may show the parent alone.
Molecular target: T1, human mAChR M4 (Homo sapiens, UniProt P08173)
T1 sequence (P08173 1-479): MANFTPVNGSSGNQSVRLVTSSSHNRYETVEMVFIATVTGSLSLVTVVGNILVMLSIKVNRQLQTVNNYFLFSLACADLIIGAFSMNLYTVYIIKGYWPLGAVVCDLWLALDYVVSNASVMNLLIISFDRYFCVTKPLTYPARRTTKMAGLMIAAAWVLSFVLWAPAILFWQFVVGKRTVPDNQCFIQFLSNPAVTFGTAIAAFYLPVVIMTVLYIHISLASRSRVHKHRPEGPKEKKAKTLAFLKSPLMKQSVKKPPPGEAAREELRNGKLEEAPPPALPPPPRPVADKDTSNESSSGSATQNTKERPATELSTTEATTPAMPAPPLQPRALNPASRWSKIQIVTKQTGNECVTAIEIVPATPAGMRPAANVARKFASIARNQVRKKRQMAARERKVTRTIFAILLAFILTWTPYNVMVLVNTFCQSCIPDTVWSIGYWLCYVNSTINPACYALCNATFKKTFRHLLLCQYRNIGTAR
Test: mAChR M4 cell-based functional assay (calcium flux), human M4
Conditions: Table 11; for EC50: Human M4 EC50 (nM), calcium flux, PAM activity with EC20 acetylcholine; for Emax: % ACh maximum at 30 μM

EC50 | Emax | Structure (SMILES)
105 nM | 76.9% | Cc1nnc2sc3c(N4CC[C@@H](Oc5ccnc(Cl)c5)C4)ncnc3c2c1C [Compound 336, 8-[(3R)-3-[(2-chloro-4-pyridyl)oxy]pyrrolidin-1-yl]-3,4-dimethyl-pyrimido [4′,5′:4,5]thieno[2,3-c] pyridazine]
116 nM | 80.2% | Cc1nnc2sc3c(N4CC[C@@H](Oc5ccnc(C(F)(F)F)c5)C4)ncnc3c2c1C [Compound 337, 3,4-dimethyl-8-[(3R)-3-[[2-(trifluoromethyl)-4-pyridyl]oxy]pyrrolidin-1-yl]pyrimido[4′,5′:4,5] thieno[2,3-c]pyridazine]
73.4 nM | 74.6% | Cc1cc(O[C@@H]2CCN(c3ncnc4c3sc3nnc(C)c(C)c34)C2)ccn1 [Compound 338, 3,4-dimethyl-8-[(3R)-3-[(2-methyl-4-pyridyl)oxy]pyrrolidin-1-yl] pyrimido[4′,5′:4,5] thieno[2,3-c]pyridazine]
4900 nM | 50.9% | Cc1nnc2sc3c(NC4CC(O)(c5ccc(F)cc5)C4)ncnc3c2c1C (stereo not drawn) [Compound 339, 3-[(3,4-dimethylpyrimido [4′,5′:4,5]thieno[2,3-c]pyridazin-8-yl)amino]-1-(4-fluorophenyl) cyclobutanol]
101 nM | 72.9% | Cc1nnc2sc3c(N4CC[C@@H](Oc5cccnc5)C4)ncnc3c2c1C [Compound 340, 3,4-dimethyl-8-[(3R)-3-(3-pyridyloxy)pyrrolidin-1-yl]pyrimido[4′,5′:4,5] thieno[2,3-c]pyridazine]
1290 nM | 81.2% | Cc1nnc2sc3c(NCc4ccc(-c5cccn5C)cc4)ncnc3c2c1C [Compound 341, 3,4-dimethyl-N-[[4-(1-methylpyrrol-2-yl)phenyl]methyl]pyrimido[4′,5′:4,5] thieno[2,3-c]pyridazin-8-amine]
1100 nM | 81.5% | Cc1cnn(C)c1-c1ccc(CNc2ncnc3c2sc2nnc(C)c(C)c23)cc1 [Compound 342, N-[[4-(2,4-dimethylpyrazol-3-yl)phenyl]methyl]-3,4-dimethyl-pyrimido[4′,5′:4,5] thieno[2,3-c]pyridazin-8-amine]
850 nM | 72.2% | CCn1nccc1-c1ccc(CNc2ncnc3c2sc2nnc(C)c(C)c23)cc1 [Compound 343, N-[[4-(2-ethylpyrazol-3-yl)phenyl]methyl]-3,4-dimethyl-pyrimido [4′,5′:4,5]thieno[2,3-c] pyridazin-8-amine]
824 nM | 70.9% | Cc1nnc2sc3c(NCc4ccc(-c5ccnn5C)cc4F)ncnc3c2c1C [Compound 344, N-[[2-fluoro-4-(2-methylpyrazol-3-yl)phenyl]methyl]-3,4-dimethyl-pyrimido[4′,5′:4,5]thieno [2,3-c]pyridazin-8-amine]
830 nM | 87.1% | Cc1nnc2sc3c(NCc4ccc(-n5cccn5)cc4)ncnc3c2c1C [Compound 345, 3,4-dimethyl-N-[(4-pyrazol-1-ylphenyl)methyl] pyrimido[4′,5′:4,5]thieno [2,3-c]pyridazin-8-amine]
749 nM | 56.8% | Cc1nnc2sc3c(N4CCC(Oc5ccnc(Cl)c5)CC4)ncnc3c2c1C [Compound 346, 8-[4-[(2-chloro-4-pyridyl)oxy]-1-piperidyl]-3,4-dimethyl-pyrimido [4′,5′:4,5]thieno[2,3-c] pyridazine]
362 nM | 48.5% | Cc1nnc2sc3c(N4CCC(COc5ccnc(Cl)c5)C4)ncnc3c2c1C (stereo not drawn) [Compound 347, 8-[3-[(2-chloro-4-pyridyl)oxymethyl]pyrrolidin-1-yl]-3,4-dimethyl-pyrimido[4′,5′:4,5] thieno[2,3-c]pyridazine dihydrochloride]
1710 nM | 65.7% | Cc1nnc2sc3c(N4CC(COc5ccnc(Cl)c5)C4)ncnc3c2c1C [Compound 348, 8-[3-[(2-choro-4-pyridyl)oxymethyl]azetidin-1-yl]-3,4-dimethyl-pyrimido [4′,5′:4,5]thieno[2,3-c] pyridazine dihydrochloride]
210 nM | 81.2% | Cc1nnc2sc3c(N4CC(Oc5ccnc(Cl)c5)C4)ncnc3c2c1C [Compound 349, 8-[3-[(2-chloro-4-pyridyl)oxy]azetidin-1-yl]-3,4-dimethyl-pyrimido[4′,5′:4,5] thieno[2,3-c]pyridazine dihydrochloride]
404 nM | 78.1% | Cc1nnc2sc3c(N4CC(Oc5cnccn5)C4)ncnc3c2c1C [Compound 350, 3,4-dimethyl-8-(3-pyrazin-2-yloxyazetidin-1-yl) pyrimido[4′,5′:4,5]thieno [2,3-c]pyridazine dihydrochloride]
444 nM | 62.1% | Cc1cc(C)c(OC2CN(c3ncnc4c3sc3nnc(C)c(C)c34)C2)cn1 [Compound 351, 8-[3-[(4,6-dimethyl-3-pyridyl)oxy]azetidin-1-yl]-3,4-dimethyl-pyrimido[4′,5′:4,5]thieno [2,3-c]pyridazine dihydrochloride]
– | 103% | [2H]C([2H])([2H])C(O)(c1ccc(CNc2ncnc3c2sc2nnc(C)c(C)c23)cc1)C([2H])([2H])[2H] [Compound 352, 1,1,1,3,3,3-hexadeuterio-2-[4-[[(3,4-dimethylpyrimido [4′,5′:4,5]thieno[2,3-c]pyridazin-8-yl)amino]methyl]phenyl]propan-2-ol]
321 nM | 48.8% | Cc1nnc2sc3c(N4CC[C@@H](C(C)(C)O)C4)ncnc3c2c1C [Compound 353, 2-[(3R)-1-(3,4-dimethylpyrimido [4′,5′:4,5]thieno[2,3-c]pyridazin-8-yl)pyrrolidin-3-yl]propan-2-ol]
362 nM | 53% | Cc1nnc2sc3c(N4CC[C@H](C(C)(C)O)C4)ncnc3c2c1C [Compound 354, 2-[(3S)-1-(3,4-dimethylpyrimido[4′,5′:4,5]thieno[2,3-c]pyridazin-8-yl)pyrrolidin-3-yl]propan-2-ol]
1310 nM | 49.2% | Cc1nnc2sc3c(N4CC(Oc5ccc(C#N)nc5)C4)ncnc3c2c1C [Compound 355, 5-[1-(3,4-dimethylpyrimido[4′,5′:4,5]thieno[2,3-c]pyridazin-8-yl)azetidin-3-yl]oxypyridine-2-carbonitrile dihydrochloride]
1170 nM | 32.8% | Cc1nnc2sc3c(N4CC(Oc5cccnc5)C4)ncnc3c2c1C [Compound 356, 3,4-dimethyl-8-[3-(3-pyridyloxy)azetidin-1-yl]pyrimido[4′,5′:4,5]thieno [2,3-c]pyridazine dihydrochloride]
1400 nM | 41.3% | Cc1nnc2sc3c(N4CC(Oc5cnn(C)c5)C4)ncnc3c2c1C [Compound 357, 3,4-dimethyl-8-[3-(1-methylpyrazol-4-yl)oxyazetidin-1-yl]pyrimido [4′,5′:4,5]thieno[2,3-c] pyridazine dihydrochloride]
276 nM | 76% | Cc1cc(O[C@H]2CN(c3ncnc4c3sc3nnc(C)c(C)c34)C[C@@H]2C)ccn1 [Compound 358, 3,4-dimethyl-8-[(3S,4R)-3-methyl-4-[(2-methyl-4-pyridyl)oxy]pyrrolidin-1-yl]pyrimido[4′,5′:4,5] thieno[2,3-c] pyridazine dihydrochloride]
488 nM | 31.8% | Cc1nnc2sc3c(N4CC[C@H](Oc5ccccn5)C4)ncnc3c2c1C [Compound 359, 3,4-dimethyl-8-[(3S)-3-(2-pyridyloxy)pyrrolidin-1-yl]pyrimido[4′,5′:4,5]thieno[2,3-c]pyridazine dihydrochloride]
333 nM | 56% | Cc1nnc2sc3c(N4CC[C@H](Oc5ccc(C(F)(F)F)cn5)C4)ncnc3c2c1C [Compound 360, 3,4-dimethyl-8-[(3S)-3-[[5-(trifluoromethyl)-2-pyridyl]oxy]pyrrolidin-1-yl] pyrimido[4′,5′:4,5]thieno [2,3-c]pyridazine dihydrochloride]
1470 nM | 53.9% | Cc1nnc2sc3c(N4CC[C@H](Oc5cnccn5)C4)ncnc3c2c1C [Compound 361, 3,4-dimethyl-8-[(3S)-3-pyrazin-2-yloxypyrrolidin-1-yl]pyrimido[4′,5′:4,5] thieno[2,3-c]pyridazine dihydrochloride]
519 nM | 75.7% | Cc1nnc2sc3c(N4CC[C@H](Oc5ccc(C(F)(F)F)nc5)C4)ncnc3c2c1C [Compound 362, 3,4-dimethyl-8-[(3S)-3-[[6-(trifluoromethyl)-3-pyridyl]oxy]pyrrolidin-1-yl] pyrimido[4′,5′:4,5]thieno [2,3-c]pyridazine dihydrochloride]
298 nM | 64.8% | Cc1nnc2sc3c(N4CC[C@H](Oc5ccc(C#N)cc5)C4)ncnc3c2c1C [Compound 363, 4-[(3S)-1-(3,4-dimethylpyrimido[4′,5′:4,5]thieno[2,3-c]pyridazin-8-yl)pyrrolidin-3-yl] oxybenzonitrile dihydrochloride]
423 nM | 50.7% | Cc1ccc(O[C@H]2CCN(c3ncnc4c3sc3nnc(C)c(C)c34)C2)cn1 [Compound 364, 3,4-dimethyl-8-[(3S)-3-[(6-methyl-3-pyridyl)oxy]pyrrolidin-1-yl]pyrimido [4′,5′:4,5]thieno[2,3-c] pyridazine dihydrochloride]

Reference: patent US10239887B2, “Positive allosteric modulators of the muscarinic acetylcholine receptor M4” (Vanderbilt University, priority 2016, dated 2019)
